Results on two compounds are retold here after the NIST ThermoML archive (doi:10.1021/je300736k).

The conditions of this data set: Liquid, Closed cell (Static) method.

For orientation: vapor or sublimation pressure means the equilibrium pressure above the liquid or solid.

Numbers after ± are expanded uncertainties.

`CC12CCC(CC1)C(C)(C)O2` [1,3,3-trimethyl-2-oxabicyclo[2.2.2]octane]: the “vapor or sublimation pressure” value reads like this: (278.15 K) 0.071 ± 0.026 kPa; (283.15 K) 0.093 ± 0.026 kPa; (288.15 K) 0.13 ± 0.026 kPa; (293.15 K) 0.178 ± 0.026 kPa; (298.15 K) 0.253 ± 0.026 kPa; (303.15 K) 0.346 ± 0.026 kPa. Besides, the “vapor or sublimation pressure” value is, setting by setting: (308.15 K) 0.477 ± 0.026 kPa; (313.15 K) 0.627 ± 0.027 kPa; (318.15 K) 0.828 ± 0.027 kPa; (323.15 K) 1.101 ± 0.027 kPa.
With `CCCO` [propan-1-ol], the “vapor or sublimation pressure” value reads like this: (278.15 K) 0.704 ± 0.027 kPa; (283.15 K) 1.012 ± 0.027 kPa; (288.15 K) 1.449 ± 0.028 kPa; (293.15 K) 2.038 ± 0.028 kPa; (298.15 K) 2.838 ± 0.029 kPa; (303.15 K) 3.866 ± 0.029 kPa. Further, the “vapor or sublimation pressure” value is given as 5.229 ± 0.03 kPa (308.15 K), 7.006 ± 0.032 kPa (313.15 K), 9.295 ± 0.035 kPa (318.15 K) and 12.18 ± 0.037 kPa (323.15 K).
